logP | SMILES
3.09 | CCCOc1ccc(C(=O)O)cc1
1.76 | O=Cc1ccc(C(=O)O)cc1
3.25 | O=C(O)c1ccc(Cl)c(Cl)c1
1.03 | NCc1ccc(C(=O)O)cc1
1.32 | CC(=O)Nc1cccc(C(=O)O)c1
3.42 | CCCc1ccc(C(=O)O)cc1
2.89 | CCc1ccc(C(=O)O)cc1
1.28 | CN(C)c1ccc(C(=O)O)cc1

SMILES | logP
O=C(O)c1cc(Cl)ccc1Cl | 2.82
[N-]=[N+]=Nc1ccc(C(=O)O)cc1 | 2.54

— the OPERA property sets (Mansouri et al. 2018)
